Key:
[1] = tested on: stage II and III colon adenocarcinoma; conditions: oxaliplatin added to FU and LV; trials MOSAIC and C-07; cited from earlier work
[2] = tested on: early-stage colon cancer; conditions: recent MOSAIC analysis; all stage II or high risk stage II patients; cited from earlier work
[3] = tested on: stage II and III colon cancer, CRC subtypes; assay: C-07 discovery cohort: oxaliplatin benefit by CRC intrinsic subtype (CRC-SSP-72), Kaplan Meier analysis; type: in vivo, human
Description: FIG. 3 Kaplan Meier Plots of each CRC subtype using our gene signature by CRC-SSP-72 according to treatment (FULV versus FOLFOX) using recurrence free survival (RFS) as the end point. Among identified CRC subtypes, only Enterocyte received significant benefit (HR=0.315, p=0.005).
FIG. 4 Kaplan Meier Plots of the Enterocyte subtype and of all of the other subtypes (Goblet-like, Inflammatory, Stem-like and TA) combined into one group (Others) There is significant treatment-group interaction (p=0.012)
We have profiled 296 genes in 1840 patients using the nCounter Assay system (Nanostring Technologies, Seattle Wash.). Clinical data and nCounter data for the discovery dataset were merged and anonymized by the honest broker at the University of Pittsburgh as defined by standard operations under IRB approval of NSABP Biospecimen Bank and Biostatistics Center. We have developed a predictive algorithm to classify tumors into oxaliplatin benefit or no benefit group using discovery cohort of 848 patients without access to the data from the remaining 992 patients (validation cohort).
For C07, 2409 patients were enrolled in C-07 and all cases with tumor blocks, proper consent, clinical follow-up information and sufficient RNA yields were used in this study (N=1840). These cases were split into a discovery (N=848) and a validation (N=992) cohort (FIG. 1). […]

## O=C1[O][Pt]2([NH][C@@H]3CCCC[C@H]3[NH]2)[O]C1=O [oxaliplatin]
[1]
  disease free survival (DFS): significantly improved disease free survival
[2]
  benefit in stage II patients: no statistically significant benefit
[3]; Enterocyte subtype, FULV versus oxaliplatin arm, p=0.005
  recurrence free survival (RFS) HR: 0.315
[3]; enterocyte subtype versus TA, goblet, inflammatory and stem-like, treatment-group interaction p=0.012
  benefit from oxaliplatin by subtype: only the enterocyte subtype received benefit

From patent publication US10166210B2, “Methods of subtyping CRC and their association with treatment of colon cancer patients with oxaliplatin” (NSABP Foundation, Inc., priority 2014, dated 2019)
